{
  "source": "patent US7157092B1",
  "about": "“Acyl pseudodipeptides, preparation method and pharmaceutical compositions containing same” (Om Pharma, priority 1998, dated 2007)",
  "key": {"[1]": {"test_system": "limulus amoebocyte lysate (LAL)", "assay": "Chromogenic Limulus Amoebocyte Lysate (LAL) endotoxicity test", "type": "biochemical", "settings": "for LAL activity in EU/mg: mean ± standard deviation", "protocol": "Endotoxicity was determined by a chromogenic Limuls Amoebocyte Lysate test (Chromogenic LAL of Charles River Endosafe, batch # EK412E, Charleston, USA). This test is based on activation by a lipopolysaccharide (LPS) or structurally analogous products, of an enzymatic cascade present in LAL.\nThe enzymatic reaction is conducted at 37° C. and the time-course chromogen formation is measured at 405 nm. In the final stage of this time-course determination assay, the time required to achieve an OD of 0.2 unit is recorded and the endotoxic activity is calculated based on an LPS standard (standard curve).\nResults are expressed in EU (Endotoxin Unit) in relation to a standardized preparation of E. coli lipolysaccharides. For this series of assays, 1 EU corresponds to […] of LPS equivalent.\nIt is mandatory to compare the quantitative assay of the pyrogen content with a given well standardized single series of experiments."}, "DC-6 cells": {"test_system": "DC-6 cells", "assay": "α TNF production by predendritic cells at DC-6 stage (ELISA)", "settings": "10 μg/ml; 4, 6 and 24 hr; FIG. 10"}, "[2]": {"test_system": "Pb CS 245-252 T-cell epitope", "assay": "Murine immunization with Pb CS His6-242-310 peptide: CTL response (γ IFN ELISPOT)", "settings": "0.05 mg adjuvant + 0.02 mg antigen s.c.; FIGS. 17-20"}, "murine macrophage cells": {"test_system": "murine macrophage cells", "assay": "Nitric oxide production in supernatants of macrophage cultures (Griess)", "type": "cell-based, C57/BL6 mice", "settings": "22 hours incubation, Griess reagent; FIG. 2", "protocol": "Two six-week old male C57/BL6 mice were killed by CO2 inhalation followed by cervical dislocation. The mice were washed with alcohol, and the skin of the posterior members was entirely removed. The hip, the femur and the tibia bones were removed by joint disruption. The flesh was grossly removed using a scalpel. The bones were cleaned and the bone ends were cut with scissors. The marrrow was aspirated by injecting three times 1 ml of Dulbecco's Modified Eagle Medium (DH medium) in the bone lumen. The cells were resuspended in DH medium and centrifuged at 300×g for 5 minutes. The supernatant fluid was discarded and the cells were resuspended at a density of 40 000 cells/ml in DH medium supplemented with 20% horse serum (HS) and 30% L929 culture supernatant. L929 is a murine fibroblast cell line the supernatant fluid of which is rich in growth factor for macrophage (M-CSF). […]\nAfter 22 hours, the microtiter plates were centrifuged, 5 minutes at 400×g and 100 μl of supernatant fluid were withdrawn and transferred into a microtiter plate. […] The microtiter plates were read with a spectrophotometer at 562 nm wavelength against a reference at 690 nm. […]\nThe results are expressed as mean±standard deviation after deduction of the negative control value and plotted as a dose versus response curve."}, "H1N1 antigen": {"test_system": "H1N1 antigen", "assay": "Subcutaneous immunization with H1N1 antigen: specific serum immunoglobulins (ELISA)", "type": "in vivo, BALB/c mice", "settings": "for Immunoglobulins specifically raised against H1N1 of IgG1 subclass / Immunoglobulins specifically raised against H1N1 of IgG2a subclass / Immunoglobulins specifically raised against H1N1 of IgM subclass: s.c. injections days 0 and 14, H1N1 2.5 μg, adjuvant 50 μg per injection, ± SD; for adjuvant effect on titer of antibodies specifically raised against H1N1: after one or two injections, FIGS. 22-24"}, "LmCPb antigen": {"test_system": "LmCPb antigen", "type": "in vivo, CBA mice", "settings": "for extent of proliferation, times higher than cultures from mice administered antigen alone (without adjuvant): in presence of LmCPb (15 μg/ml)"}, "[3]": {"settings": "2 injections LmCPb 3–5 μg with 2×50 μg OM adjuvant or 200 μg BCG, in vitro: No stimulant"}, "[4]": {"settings": "2 injections LmCPb with adjuvant, in vitro: Amastigotes 2 × 10^−6/ml"}, "[5]": {"settings": "2 injections LmCPb with adjuvant, in vitro: Amastigotes 6 × 10^−6/ml"}, "[6]": {"settings": "2 injections LmCPb with adjuvant, in vitro: Amastigotes 17 × 10^−6/ml"}, "[7]": {"settings": "2 injections LmCPb with adjuvant, in vitro: Con A 5 μg/ml"}, "[8]": {"settings": "2 injections LmCPb with adjuvant, in vitro: LmCPb 0.6 μg/ml"}, "[9]": {"settings": "2 injections LmCPb with adjuvant, in vitro: LmCPb 1.7 μg/ml"}, "[10]": {"settings": "2 injections LmCPb with adjuvant, in vitro: LmCPb 5 μg/ml"}, "[11]": {"settings": "2 injections LmCPb with adjuvant, in vitro: LmCPb 15 μg/ml"}},
  "note": "Read-outs that look alike come from different tables or passages of the source.",
  "data": [
    {"smiles": "CCCCCCCCCCCC(=O)O[C@H](CCCCCCCCCCC)CC(=O)NC(CCOP(=O)(O)O)C(=O)NCCCC(COP(=O)(O)O)NC(=O)C[C@H](O)CCCCCCCCCCC", "note": "(stereo partly drawn) [OM-294-DP, 3-[(R)-3-dodecanoyloxytetradecanoylamino]-4-oxo-5-aza-9-[(R)-3-hydroxytetradecanoylamino]decan-1,10-diol 1, 10-bis(dihydrogenphosphate)]", "values": [
      {"measurement": "LAL activity in LPS equivalents", "setting": "[1]", "result": 6.2, "unit": "ng eq. LPS/mg"},
      {"measurement": "LAL activity in EU/mg", "setting": "[1]", "result": "56 ± 48", "unit": "EU/mg"},
      {"measurement": "α TNF production by DC-6 cells", "setting": "DC-6 cells", "result": "only a minor stimulating effect"},
      {"measurement": "CTL activity of lymphocytes from spleen and inguinal lymph nodes (γ IFN spots)", "setting": "[2]", "result": "clearly superior to the one induced by IFA"},
      {"measurement": "production of nitric oxide by murine macrophage cells", "setting": "murine macrophage cells", "result": "to a much greater extent than E. coli LPS"},
      {"measurement": "Immunoglobulins specifically raised against H1N1 of IgG1 subclass", "setting": "H1N1 antigen; Day 14", "result": "59 ± 21", "unit": "Arbitrary units/ml"},
      {"measurement": "Immunoglobulins specifically raised against H1N1 of IgG2a subclass", "setting": "H1N1 antigen; Day 14", "result": "452 ± 584", "unit": "Arbitrary units/ml"},
      {"measurement": "Immunoglobulins specifically raised against H1N1 of IgM subclass", "setting": "H1N1 antigen; Day 14", "result": "20756 ± 7160", "unit": "Arbitrary units/ml"},
      {"measurement": "Immunoglobulins specifically raised against H1N1 of IgG1 subclass", "setting": "H1N1 antigen; Day 28", "result": "38 ± 25", "unit": "Arbitrary units/ml"},
      {"measurement": "Immunoglobulins specifically raised against H1N1 of IgG2a subclass", "setting": "H1N1 antigen; Day 28", "result": "782 ± 857", "unit": "Arbitrary units/ml"},
      {"measurement": "Immunoglobulins specifically raised against H1N1 of IgM subclass", "setting": "H1N1 antigen; Day 28", "result": "20944 ± 9065", "unit": "Arbitrary units/ml"},
      {"measurement": "adjuvant effect on titer of antibodies specifically raised against H1N1", "setting": "H1N1 antigen", "result": "significantly increase the titer of antibodies specifically raised against H1N1"},
      {"measurement": "3H-TdR take-up", "setting": "LmCPb antigen; [3]", "result": "21.8 ± 2.2", "unit": "cpm × 10^−3/ml"},
      {"measurement": "3H-TdR take-up", "setting": "LmCPb antigen; [4]", "result": "61.0 ± 1.7", "unit": "cpm × 10^−3/ml"},
      {"measurement": "3H-TdR take-up", "setting": "LmCPb antigen; [5]", "result": "81.5 ± 5.5", "unit": "cpm × 10^−3/ml"},
      {"measurement": "3H-TdR take-up", "setting": "LmCPb antigen; [6]", "result": "78.2 ± 7.8", "unit": "cpm × 10^−3/ml"},
      {"measurement": "3H-TdR take-up", "setting": "LmCPb antigen; [7]", "result": "135.9 ± 3.7", "unit": "cpm × 10^−3/ml"},
      {"measurement": "3H-TdR take-up", "setting": "LmCPb antigen; [8]", "result": "40.9 ± 12.7", "unit": "cpm × 10^−3/ml"},
      {"measurement": "3H-TdR take-up", "setting": "LmCPb antigen; [9]", "result": "57.2 ± 10.9", "unit": "cpm × 10^−3/ml"},
      {"measurement": "3H-TdR take-up", "setting": "LmCPb antigen; [10]", "result": "70.2 ± 9.2", "unit": "cpm × 10^−3/ml"},
      {"measurement": "3H-TdR take-up", "setting": "LmCPb antigen; [11]", "result": "100.0 ± 6.5", "unit": "cpm × 10^−3/ml"},
      {"measurement": "extent of proliferation, times higher than cultures from mice administered antigen alone (without adjuvant)", "setting": "LmCPb antigen", "result": 28, "unit": "times"}
    ]},
    {"smiles": "CCCCCCCCCCCC(=O)O[C@H](CCCCCCCCCCC)CC(=O)NC(CCOP(=O)(O)O)C(=O)NCCCC(CO)NC(=O)C[C@H](O)CCCCCCCCCCC", "note": "(stereo partly drawn) [OM-294-MP, 3-[(R)-3-dodecanoyloxytetradecanoylamino]-4-oxo-5-aza-9-[(R)-3-hydroxytetradecanoylamino]-decane-1,10-diol 1-dihydrogenphosphate]", "values": [
      {"measurement": "LAL activity in LPS equivalents", "setting": "[1]", "result": 1.4, "unit": "ng eq. LPS/mg"},
      {"measurement": "LAL activity in EU/mg", "setting": "[1]", "result": "13 ± 2", "unit": "EU/mg"},
      {"measurement": "α TNF production by DC-6 cells", "setting": "DC-6 cells", "result": "in a way similar to LPS"},
      {"measurement": "CTL activity of lymphocytes from spleen and inguinal lymph nodes (γ IFN spots)", "setting": "[2]", "result": "clearly superior to the one induced by IFA"},
      {"measurement": "production of nitric oxide by murine macrophage cells", "setting": "murine macrophage cells", "result": "weaker response"},
      {"measurement": "Immunoglobulins specifically raised against H1N1 of IgG1 subclass", "setting": "H1N1 antigen; Day 14", "result": "69 ± 34", "unit": "Arbitrary units/ml"},
      {"measurement": "Immunoglobulins specifically raised against H1N1 of IgG2a subclass", "setting": "H1N1 antigen; Day 14", "result": "1619 ± 743", "unit": "Arbitrary units/ml"},
      {"measurement": "Immunoglobulins specifically raised against H1N1 of IgM subclass", "setting": "H1N1 antigen; Day 14", "result": "19065 ± 4069", "unit": "Arbitrary units/ml"},
      {"measurement": "Immunoglobulins specifically raised against H1N1 of IgG1 subclass", "setting": "H1N1 antigen; Day 28", "result": "59 ± 31", "unit": "Arbitrary units/ml"},
      {"measurement": "Immunoglobulins specifically raised against H1N1 of IgG2a subclass", "setting": "H1N1 antigen; Day 28", "result": "1767 ± 1034", "unit": "Arbitrary units/ml"},
      {"measurement": "Immunoglobulins specifically raised against H1N1 of IgM subclass", "setting": "H1N1 antigen; Day 28", "result": "18018 ± 1016", "unit": "Arbitrary units/ml"},
      {"measurement": "adjuvant effect on titer of antibodies specifically raised against H1N1", "setting": "H1N1 antigen", "result": "significantly increase the titer of antibodies specifically raised against H1N1"},
      {"measurement": "3H-TdR take-up", "setting": "LmCPb antigen; [3]", "result": "17.1 ± 2.5", "unit": "cpm × 10^−3/ml"},
      {"measurement": "3H-TdR take-up", "setting": "LmCPb antigen; [4]", "result": "28.4 ± 8.3", "unit": "cpm × 10^−3/ml"},
      {"measurement": "3H-TdR take-up", "setting": "LmCPb antigen; [5]", "result": "66.1 ± 4.5", "unit": "cpm × 10^−3/ml"},
      {"measurement": "3H-TdR take-up", "setting": "LmCPb antigen; [6]", "result": "68.7 ± 2.3", "unit": "cpm × 10^−3/ml"},
      {"measurement": "3H-TdR take-up", "setting": "LmCPb antigen; [7]", "result": "151.4 ± 3.7", "unit": "cpm × 10^−3/ml"},
      {"measurement": "3H-TdR take-up", "setting": "LmCPb antigen; [8]", "result": "22.9 ± 2.8", "unit": "cpm × 10^−3/ml"},
      {"measurement": "3H-TdR take-up", "setting": "LmCPb antigen; [9]", "result": "34.1 ± 4.1", "unit": "cpm × 10^−3/ml"},
      {"measurement": "3H-TdR take-up", "setting": "LmCPb antigen; [10]", "result": "70.3 ± 6.4", "unit": "cpm × 10^−3/ml"},
      {"measurement": "3H-TdR take-up", "setting": "LmCPb antigen; [11]", "result": "124.2 ± 12.0", "unit": "cpm × 10^−3/ml"},
      {"measurement": "extent of proliferation, times higher than cultures from mice administered antigen alone (without adjuvant)", "setting": "LmCPb antigen", "result": 23, "unit": "times"}
    ]}
  ]
}
